In patent US20220305129A1, “CONJUGATES OF HETEROAROMATIC NITROGEN-COMPRISING COMPOUNDS” (Ascendis Pharma A/S, priority 2019, published 2022):

Test: In vitro release kinetics: cleavage rate of the reversible bond in aqueous buffer
Format: physicochemical
Details: aqueous buffer (sodium phosphate with acetonitrile), pH 7.4, 37° C., 48 mM sodium phosphate, 20% acetonitrile, disappearance of conjugate by LCMS (UV), read-out: t1/2 (pH 7.4) (converted)
Procedure: The cleavage rate of the reversible bond from conjugates 6, 10 and 11 was monitored at pH 7.4 and 37° C. in aqueous buffer (pH 7.4 48 mM sodium phosphate, 20% acetonitrile). The disappearance of the conjugate was determined by LCMS (UV detection) and fitted with curve fitting software to obtain the half-life of the release.

half-life	SMILES
192 h	CCOC(c1ccccc1)n1cnc2ccccc21 (stereo not drawn) [Compound 6]
10 h	CCOC(c1ccc(CC(=O)O)cc1)n1cnc2ccccc21 (stereo not drawn) [Compound 10]
137 h	CCOC(c1ccccc1)n1ncc2ccccc21 (stereo not drawn) [Compound 11]
